Assay results published in patent US20240238228A1, “COMPOSITIONS AND METHODS FOR TREATING ALLERGIES AND INFLAMMATORY CONDITIONS” (UNIVERSITY OF PITTSBURGH-OF THE COMMONWEALTH SYSTEM OF …, priority 2021, published 2024).
Each block holds one compound with its values, some of them ahead of it.

Legend:
inflammasome = details: cited from earlier work
[1] = tested on: passive cutaneous anaphylaxis (PCA); assay: Passive cutaneous anaphylaxis (PCA) in mice; type: in vivo, mouse; details: glyburide 2.5 mg/kg i.p. 3 h prior to PCA induction
[2] = tested on: connective tissue MCs from the skin, the heart, or peritoneal MCs; details: cited from earlier work
BMMCs = assay: β-hexosaminidase release from BMMCs; type: cell-based, murine; details: incubated with NKA or activated with IgE and antigen in the presence of NKA
Experimental: Mast cells (5×10^5-1×10^6) were loaded with IgE ([…]) for a minimum of 3 h in Tyrode's Buffer. Neurokinin A ([…]) was added with DNP-HSA (Sigma, as indicated or 100 ng/mL) for 40 min at 37 C. Cells and supernatants were collected, cell pellets were lysed in Tyrode's Buffer by freeze-thawing then incubated with p-nitrophenyl N-acetyl j-D-glucosaminide (EMB Millipore, 5 mM) dissolved in citrate buffer (0.04 M, pH 4.5) for 90 minutes. The enzymatic reaction was stopped with glycine (0.4 M, pH 10.7). Absorbance at 450 nm was read. The average percentage of b-hexosaminidase release from triplicate values was calculated as (ODsup/ODsup+ODlysate)×100(%).

[3] = tested on: mucosal MCs from the lung; details: cited from earlier work
STAT5 = STAT5 phosphorylation (flow cytometry) and nuclear localization (ImageStream) in BMMCs; type: cell-based, murine
Experimental: To detect phospho-Stat5Tyr694, MCs were loaded with IgE in serum and cytokine-free RPMI. Neurokinin A (1.0 μM) or vehicle control and DNP-HSA (100 ng/mL) were added simultaneously. At the indicated time, cells were fixed with 2.0% paraformaldehyde for 10 minutes then permeabilized with 90% methanol overnight at −20° C. Cells were stained with monoclonal anti-phospho-Stat5 Tyr694 Alexa Fluor 647 (clone C71E5, Cell Signaling Technology) for 60 minutes at room temperature. Nuclear co-localization was evaluated using ImageStream (Amnis). Activated BMMCs were fixed with 2.0% paraformaldehyde, permeabilized with Permeabilization Wash Buffer containing 3% FBS and 0.1% Triton X-100. and stained with anti-STAT5B Alexa Fluor 488 (clone EPR16671, Abcam) and DAPI. Data were analyzed using the Co-localization Wizard in IDEAS (v6.2). Co-localization for single cells expressing STAT5B and DAPI was quantified as Similarity Score, a log-transformed Pearson's correlation coefficient for the pixel intensity of corresponding images.

Compound: COc1ccc(Cl)cc1C(=O)NCCc1ccc(S(=O)(=O)NC(=O)NC2CCCCC2)cc1 [glyburide, reference compound]
inflammasome (inflammasome): inhibits
ear thickness at 2 h [1]: significantly reduced
levels of IL-13 in the skin ([1]; 24 hours): diminished
levels of TNF in the skin ([1]; 24 hours): diminished

β-hexosaminidase release (BMMCs): no difference
Compound: Neurokinin A [NKA]
histamine release [2]: not
histamine release [3]: induces histamine release
nuclear translocation of STAT5B (imaging flow cytometry) (STAT5; 30 and 60 minutes following IgE crosslinking): significantly reduced
pTyr695-STAT5 detected by flow cytometry (STAT5; 15 minutes after crosslinking IgE with Ag, NKA 1.0 μM): reduced
